Consider four compounds from patent EP2457593A1, “Cyclic RGD peptides of amino acids based on thiazoles or oxazoles as selective antagonists of the alpha-v beta-3 integrin” (Lykera Biomed S.A., priority 2010, dated 2012).

In one assay the test system is HT-29 (αvβ5). Description: Cell adhesion inhibition, vitronectin (VN) as ligand, HT-29. The class given is cell-based, human. The following applies: for EC50: VN ligand, HT-29, coating 4.0 µg/ml, read-out: Adhesion inhibition - EC-50; for blocking activity against αvβ5: HT29-VN cell system. Here is the method: (§1) Biological experiments. Cells were grown in DMEM High Glucose (GIBCO, Ref: 31966), supplemented with 10% FCS (GIBCO, 10106-169) at 37°C and 5% CO2. Cells were expanded when they reached 90% confluence. Non-tissue culture treated ELISA plates were coated at 4°C with the appropriate concentration of the ligand (depending on the cell line). The coating solution was discarded and the wells were blocked with blocking solution (1.5% BSA; 60 minutes at 37°C). The blocking solution was discarded by flicking and serial dilutions of the compounds were plated in duplicates. Immediately, harvested cells were plated at a given concentration (20000-25000 /well for HUVEC and DAOY and 50000 for HT-29) to the same plate. Plates were incubated for 60-90 min at 37°C to allow cell adhesion and spreading on the ligands. Plates were washed three times with PBS and 100 µl/well of Hexosaminidase Substrate solution was added. Plates were incubated at 37°C during 3 hours and then stop solution was added. Adsorption was read at OD 405nm.
(§2) Each plate contains positive and negative controls and peptides were tested as duplicates. Each assay has been repeated at least twice and the adhesion inhibition EC50 was calculated, when possible, using the Prism-4 software based on the sigmoidal dose-response (variable slope) equation.
(§3) The different RDG derivates based on thiazole-amino acid structures were tested for their biological activity such as inhibition of cell adhesion using three different cell systems and three integrin ligands for each cell line (vitronectin (VN), fibrinogen (FB) and fibronectin (FN) and collagen (COL)). The cell lines used for the study were: DAOY human […] cells and HUVEC human umbilical vein endothelial cells as primary cell culture, which overexpresses in both members, αvβ3 and αvβ5, of the αv-integrin family, and HT29 human colon adenocarcinoma, which overexpresses in both members, αvβ5 and αvβ6, of the αv-integrin family.
(§4) In the experiments using VN as integrin ligand, both HUVEC and DAOY cells use αvβ3 and αvβ5 to adhere to VN; while HT29 cells use only αvβ5 to adhere to VN. In contrast, in the experiments using FB as integrin ligands, both HUVEC and DAOY cells use αvβ3 to adhere to FB, and the experiments using FN and COL were to control that the compounds could no inhibit the independent cell adhesion.

The test system of assay [1] is HUVEC cell line. Description: Cell adhesion inhibition, fibronectin (FN) as ligand (αv-integrin independent control), HUVEC. The class given is cell-based, human. Here is the method:
(§5) Figure 1. […] A) Using vitronectin (VN) as ligand. B) Using fibrinogen (FB) as ligand. Figure 2. […] Figure 3. […] A) Using fibronectin (FN) as ligand. B) Using collagen (COL) as ligand.
as §1, with “Plates were washed three times with PBS and 100 µl/well of Hexosaminidase Substrate solution was added. Plates were incubated at 37°C during 3 hours and then stop solution was added.” left out
(§6) Each plate contains positive and negative controls and peptides were tested as duplicates. Each assay has been repeated at least twice and the adhesion inhibition EC50 was calculated, when possible, using the Prism-4 software based on the sigmoidal dose-response (variable slope) equation. […]

The test system of the next assay is DAOY (αvβ3). The assay can be described thus: Cell adhesion inhibition, fibrinogen (FB) as ligand, DAOY. The format is cell-based, human. The following applies: coating 5.0 µg/ml, read-out: Adhesion inhibition - EC-50. On the procedure:
as §1, §2
as §3, with “family. […]” for “family.”

Assay [2] concerns HUVEC cell line. Description: Cell adhesion inhibition, collagen (COL) as ligand (αv-integrin independent control), HUVEC. The class given is cell-based, human. Here is the method: as §5
as §1, with “Plates were washed three times with PBS and 100 µl/well of Hexosaminidase Substrate solution was added. Plates were incubated at 37°C during 3 hours and then stop solution was added.” left out
as §6

Another assay deals with DAOY (αvβ3 /αvβ5). The assay can be described thus: Cell adhesion inhibition, vitronectin (VN) as ligand, DAOY. The class given is cell-based, human. Conditions: coating 0.5 µg/ml, read-out: Adhesion inhibition - EC-50. Here is the method:
as §1, §2
as §3, with “family. […]” for “family.”

The next assay has as its system HUVEC (αvβ3/αvβ5). Description: Cell adhesion inhibition, vitronectin (VN) as ligand, HUVEC. Conditions: coating 0.75 µg/ml, read-out: Adhesion inhibition - EC-50. The class given is cell-based, human. Here is the method:
as §1, §2, §3, §4

Assay [3] deals with HUVEC cell line. The assay can be described thus: Inhibition of cell adhesion, first series of experiments, HUVEC cell line (ligand not specified). The class given is cell-based, human. The following applies: for biological activity (inhibition of cell adhesion), in words: HUVEC cell line, first series of experiments. Here is the method:
as §1, §2, §3
In the first series of experiments compounds 1-5 were tested using HUVEC cell line showing that only compounds 4 and 5 were active.

The target of another assay is HUVEC (αvβ3) (Homo sapiens, UniProt P05106+P06756). The assay can be described thus: Cell adhesion inhibition, fibrinogen (FB) as ligand, HUVEC. The class given is cell-based. Conditions: from adhesion of the HUVEC and DAOY cells to FB.
Chain of HUVEC (αvβ3) (P06756 31-1048): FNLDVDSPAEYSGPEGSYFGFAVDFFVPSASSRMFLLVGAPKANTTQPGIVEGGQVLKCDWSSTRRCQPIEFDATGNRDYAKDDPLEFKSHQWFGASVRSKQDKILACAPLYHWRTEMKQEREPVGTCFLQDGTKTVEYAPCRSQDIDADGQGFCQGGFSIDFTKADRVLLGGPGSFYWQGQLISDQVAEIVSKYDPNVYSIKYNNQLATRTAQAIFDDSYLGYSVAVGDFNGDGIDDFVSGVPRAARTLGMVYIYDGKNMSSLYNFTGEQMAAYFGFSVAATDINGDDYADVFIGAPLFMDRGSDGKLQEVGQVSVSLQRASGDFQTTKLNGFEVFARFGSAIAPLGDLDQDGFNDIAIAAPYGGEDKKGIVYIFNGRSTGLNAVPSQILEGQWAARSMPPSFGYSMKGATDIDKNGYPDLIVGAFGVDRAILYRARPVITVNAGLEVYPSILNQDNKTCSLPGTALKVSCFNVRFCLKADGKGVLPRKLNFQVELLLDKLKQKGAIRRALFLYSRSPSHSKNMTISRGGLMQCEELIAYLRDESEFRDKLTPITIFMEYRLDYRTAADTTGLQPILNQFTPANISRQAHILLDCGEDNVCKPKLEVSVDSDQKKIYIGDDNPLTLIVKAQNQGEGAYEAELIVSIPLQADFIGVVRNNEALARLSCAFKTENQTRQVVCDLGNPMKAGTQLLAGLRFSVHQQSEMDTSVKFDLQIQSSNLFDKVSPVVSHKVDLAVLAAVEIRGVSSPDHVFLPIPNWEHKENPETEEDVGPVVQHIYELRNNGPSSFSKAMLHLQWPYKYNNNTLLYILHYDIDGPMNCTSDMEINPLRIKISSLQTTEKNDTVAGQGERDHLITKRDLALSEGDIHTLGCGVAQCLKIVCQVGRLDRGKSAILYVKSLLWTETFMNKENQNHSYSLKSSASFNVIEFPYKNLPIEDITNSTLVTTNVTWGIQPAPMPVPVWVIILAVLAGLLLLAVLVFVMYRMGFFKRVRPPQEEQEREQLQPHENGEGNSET
Chain of HUVEC (αvβ3) (P05106 27-788): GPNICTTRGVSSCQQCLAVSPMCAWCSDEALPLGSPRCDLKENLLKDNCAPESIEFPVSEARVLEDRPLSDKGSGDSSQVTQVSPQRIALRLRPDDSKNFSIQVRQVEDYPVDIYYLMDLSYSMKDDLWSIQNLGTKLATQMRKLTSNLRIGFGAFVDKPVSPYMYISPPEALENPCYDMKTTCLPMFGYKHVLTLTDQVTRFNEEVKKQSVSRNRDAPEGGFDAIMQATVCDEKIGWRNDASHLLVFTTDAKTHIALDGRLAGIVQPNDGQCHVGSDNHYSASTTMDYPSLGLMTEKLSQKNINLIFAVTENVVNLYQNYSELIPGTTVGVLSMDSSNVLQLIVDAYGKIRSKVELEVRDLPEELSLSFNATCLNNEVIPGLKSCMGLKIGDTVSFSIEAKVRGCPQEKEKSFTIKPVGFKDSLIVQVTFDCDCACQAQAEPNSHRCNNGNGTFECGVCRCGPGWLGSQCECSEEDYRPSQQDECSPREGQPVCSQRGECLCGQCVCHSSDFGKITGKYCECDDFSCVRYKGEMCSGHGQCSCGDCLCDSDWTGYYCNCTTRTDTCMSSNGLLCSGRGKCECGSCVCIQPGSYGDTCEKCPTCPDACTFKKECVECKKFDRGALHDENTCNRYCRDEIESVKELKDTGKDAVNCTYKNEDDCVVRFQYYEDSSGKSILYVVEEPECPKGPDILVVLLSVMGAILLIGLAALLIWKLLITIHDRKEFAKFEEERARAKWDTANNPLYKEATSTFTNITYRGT

SMILES strings stand for the structures.

`CC(C)[C@H]1C(=O)N[C@@H](CCCNC(=N)N)C(=O)NCC(=O)N[C@@H](CC(=O)O)C(=O)N[C@H](Cc2ccccc2)C(=O)N1C` [Cilengitide, reference compound]: the EC50 with HT-29 (αvβ5) amounted to 2.24 µM; in the assay with DAOY (αvβ3), 0.059 µM; in the assay with DAOY (αvβ3 /αvβ5), 0.068 µM; with HUVEC (αvβ3/αvβ5), 0.56 µM. The “inhibit cell adhesion to αv-integrin independent cell adhesion (FN coating)” value with HUVEC cell line [1] is recorded as “none of the compounds, including the reference one (Cilengitide) would inhibit cell adhesion”. Also, in the assay on HUVEC cell line [2], the “inhibit cell adhesion to αv-integrin independent cell adhesion (COL coating)” value is “none of the compounds, including the reference one (Cilengitide) would inhibit cell adhesion”.
Turning to `N=C(N)NCCC[C@@H]1NC(=O)c2csc(n2)CNC(=O)[C@H](CC(=O)O)NC(=O)CNC1=O` [Compound 3, Cyclo-[Arg-Gly-Asp-Thz1X-]], the “activity in all cell systems used in the study, in words” value in the assay on HUVEC cell line [3] (all cell systems used, compound 3 has values for HUVEC only) was “inactive”. Further, the EC50 in the assay on HUVEC (αvβ3/αvβ5) was determined as 31.1 µM.
As for `N=C(N)NCCC[C@@H]1NC(=O)c2csc(n2)-c2csc(n2)CNC(=O)[C@H](CC(=O)O)NC(=O)CNC1=O` [Compound 4, Cyclo-[Arg-Gly-Asp-Thz2X-]], the “blocking activity against αvβ5” value in the assay with HT-29 (αvβ5) was “no blocking activity”. The EC50 in the assay with HT-29 (αvβ5) worked out at 53.2 µM; in the assay on DAOY (αvβ3), 0.082 µM; in the assay with DAOY (αvβ3 /αvβ5), 5.71 µM; with HUVEC (αvβ3/αvβ5), 7.46 µM. Also, the “biological activity (inhibition of cell adhesion), in words” value with HUVEC cell line [3] is “active”. Besides, on HUVEC (αvβ3), the “selectivity for the αvβ3 integrin, in words” value was “selective antagonists of the αvβ3 integrin”.
`N=C(N)NCCC[C@@H]1NC(=O)c2csc(n2)-c2csc(n2)-c2csc(n2)CNC(=O)[C@H](CC(=O)O)NC(=O)CNC1=O` [Compound 5, Cyclo-[Arg-Gly-Asp-Thz3X-]]: the “blocking activity against αvβ5” value in the assay with HT-29 (αvβ5) is “no blocking activity”. For the same compound, the EC50 in the assay with HT-29 (αvβ5) worked out at 59.1 µM; in the assay on DAOY (αvβ3), 1.86 µM; in the assay with DAOY (αvβ3 /αvβ5) it was 6.8 µM; in the assay with HUVEC (αvβ3/αvβ5) it was 63.8 µM. Besides, the “biological activity (inhibition of cell adhesion), in words” value in the assay on HUVEC cell line [3] is “active”. Besides, the “selectivity for the αvβ3 integrin, in words” value at HUVEC (αvβ3) is given as “selective antagonists of the αvβ3 integrin”.
